Consider 1 substance from patent US20110256557A1, “IDENTIFYING PARATHYROID HORMONE AGONISTS AND ANTAGONISTS” (DISCOVERYBIOMED, INC., priority 2008, published 2011).

One assay deals with β-catenin. The experiment in a line: Western blot of cytosolic β-catenin in UMR-106 cells. Type of assay: cell-based, rat. The protocol: (§1) Cells were harvested in cavitation buffer (5 mM HEPES, pH 7.4, 3 mM MgCl2, 1 mM EGTA, 250 mM sucrose) containing protease and phosphatase inhibitors and homogenized by nitrogen cavitation (200 p.s.i., for 5 minutes) in a cell disruption bomb (Parr Instrument Co.; Moline, Ill.). The cell homogenate was centrifuged twice at 700 g for 10 minutes to pellet the nuclei. The supernatant was further centrifuged at 100,000 g (Beckman SW50.1 rotor) for 1 hour to separate the membrane and cytosol fractions, and the resulting membrane pellet was washed three times with cavitation buffer before use in the assays (Zhang et al., Biochem. J. 343:541-9 (1999)). Immunoprecipitation and Western blot analysis of cell lysates were performed as described previously (Wan et al., Am. J. Pathol. 166:1379-92 (2005)).
(In general: In western blotting, separated proteins are transferred to a membrane and probed.)

Another assay deals with Xenopus. The experiment in a line: LRP6-mediated secondary axis induction in Xenopus embryos. The assay is classed as in vivo. The note with it: ventral injection of PTH and PTH1R RNA with LRP6 RNA. From the text: RNAs for microinjection were synthesized using SP6 mMessage mMachine in vitro transcription kit (Ambion; Austin, Tex.). […] The doses of RNAs used were: 200 pg LRP6, 2 pg PTH and 50 pg PTH1R.

The subject of a further assay is LRP6. The assay is described as follows: LRP6 phosphorylation at PPPSP motifs, western blotting with Ab1490, UMR-106 cells. The assay is classed as cell-based, rat. The settings on record: UMR-106 cells, endogenous LRP6, Ab1490. As for the experimental part:
as §1
As phosphorylation of LRP6 at the PPPSP motifs plays a crucial role in activating downstream β-catenin signaling by Wnt, whether PTH induces phosphorylation of LRP6 at PPPSP motifs (Mao et al., Mol. Cell. 7:801-9 (2001); Tamai et al., Mol. Cell. 13:149-56 (2004); Davidson et al., Nature 438:867-72 (2005); Zeng et al., Nature 438:873-7 (2005)). Immunoprecipitated LRP6 from extracts of PTH-treated UMR-106 cells were monitored for their phosphorylation, by western blotting, with an antibody that recognizes phosphorylated PPPSP motifs (Ab1490) (Tamai et al., Mol. Cell. 13:149-56 (2004)). […] Phosphorylation of PPPSP motifs is required for axin recruitment from cytoplasm to LRP6 at cell membrane. […] Fz8CRD, a competitive inhibitor of the Wnt receptor Fz (Hsieh et al., Proc. Natl. Acad. Sci. USA 96:3546-55 (1999)), was used to exclude the possibility that these PTH effects are mediated through promotion of Wnts production or sensitization of Wnt-stimulated signaling. […] In contrast, LRP6N blocked PTH-stimulated LRP6 phosphorylation (FIG. 33).

In assay [1] the test system is phosphorylated LRP6 in osteoblasts. The assay is described as follows: Immunohistochemistry of phosphorylated LRP6 in femur sections, rats. The assay is classed as in vivo, rat. As for the experimental part: For the experiments in which rats or mice were administered PTH as single-dose injection, five-month-old male Sprague Dawley rats (Charles River Laboratories; Wilmington, Mass.) or two-month-old male C57BL/J6 mice (Jackson Laboratory; Bar Harbor, Me.) (6 per group) were administered a single dose of either vehicle (1 mM acetic acid in sterile PBS) or PTH (1-34) (Bachem Inc.; Torrance, Calif.) at 40 μg/kg in a volume of 100 μl. In the mouse model, mouse recombinant Wnt3a (R&D Systems; Minneapolis, Minn.) was injected at 25 μg/kg in a volume of 100 μl. All treatments were through bolus intravenous injection via the tail vein. Rats/mice were sacrificed at 0.5, 2, 8 and 24 hours after injection.
Formalin-fixed femur or tibia tissue sections of 5 μm thickness from rats or mice were processed with antigen retrieval and hydrogen peroxide treatment prior to incubation with primary monoclonal antibody specific for β-catenin (BD Biosciences; San Jose, Calif.), goat polyclonal antibody sclerostin (R&D Systems; Minneapolis, Minn.) or rabbit polyclonal phosphorylated LRP6 (Ab1490) for 1 hour at room temperature or overnight at 4° C. […] In the mouse model, numbers of total osteoblasts and numbers of β-catenin-positive osteoblasts were counted in three random high power fields in a 2-mm square, 1 mm distal to the lowest point of the growth plate in the secondary spongiosa. […]

As to Parathyroid hormone [PTH], the “abundance of β-catenin in the cytosol” value in the assay with β-catenin is on record as “enhanced”. The “LRP6-induced secondary axis induction” value in the assay on Xenopus is on record as “enhanced”. For the same substance, in the assay on LRP6, the “phosphorylation of LRP6 at the PPPSP motifs” value is listed as “rapidly induced”. In addition, the “phosphorylation of LRP6 in preosteoblasts or osteoblasts at the surface of trabecular bone” value in assay [1] (single dose of PTH (1-34) 40 μg/kg, antibody specific for phosphorylated PPPSP) is recorded as “stimulated”. The “amount of total LRP6 protein” value in assay [1] (single dose, same tissue) is given as “remained unchanged”.
